Assay results as given in patent publication US7531360B2, “Method of dechlorination treatment of flowing water, in particular upstream of a biological pollution detector” (Societe des Eaux de Marseille, priority 2005, dated 2009).
“Also recorded” adds a separate entry of the source. Blank lines part the entries; values can stand above or below the molecule they belong to.

Tests used:
trout fingerlings [1] = assay: Tests of known dechlorination agents for use with biological detector
Excerpt: The inventors carried out a number of experiments to test the various known dechlorination agents mentioned above.

trout fingerlings [2] = assay: Toxicity of chlorine for trout fingerlings: aquarium with increasing concentrations of sodium hypochlorite; format: in vivo; details: maintained 8 hours
Experimental: This toxicity of chlorine for trout fingerlings has also been shown by the inventors. Twelve trout fingerlings were maintained in an aquarium containing water chlorinated with increasing concentrations of sodium hypochlorite. Each chlorine concentration was maintained for a period of 8 hours. The aquarium was placed under permanent aeration using an air pump equipped with a porous diffuser. The following table presents the results observed during this experiment.
The following table presents the results observed during this experiment. ([Cl2]=chlorine disinfectant expressed in equivalent Cl2.)

Fario trout fingerlings = assay: Validation of treatment installation coupled with TruitoSEM biological detector
[3] = Effect of excess ascorbic acid on pH, dissolved oxygen and residual chlorine in artificially chlorinated distributed water; details: stoichiometric or slight excess of reducing agent
Excerpt: In order to ensure effective dechlorination, it is advantageous to control the system using a chlorine analyzer (a metering pump controlled by a chlorine analyzer). However, to avoid this metering pump control, it is possible to work with a slight excess of ascorbic acid. […] Experiments were thus carried out in this area on artificially chlorinated distributed water to verify these effects.
It should be noted that the pH still remains in a range favorable to the survival of trout fingerlings regardless of the initial pH of the distributed water.

[4] = Maintenance of reducing power of stored ascorbic acid solution over time (iodometry, FIG. 1); details: for Reducing activity of degradation by-product: compared with initial ascorbic acid
trout fingerlings [5] = details: ascorbic acid 75 mg/l, 6 trout fingerlings, 15 days
Excerpt: As for the TruitoSEM, the aquarium was maintained under constant aeration.

trout fingerlings [6] = assay: Flowing dechlorination tests in the presence of trout fingerlings; format: in vivo; details: continuous period of several days
Experimental: The dechlorinated water flowing out of the mixer directly feeds the aquarium, which is equipped with two probes to measure dissolved oxygen, pH and temperature in real time. The aquarium is maintained under permanent aeration so that stress is not induced in the fish due to a lack of dissolved oxygen.
These flowing dechlorination tests were then carried out in the presence of trout fingerlings, for a continuous period of several days.

[7] = Flowing dechlorination test without trout fingerlings (metering pump, in-line mixer, FIG. 2)

SMILES: O=C1O[C@H]([C@@H](O)CO)C([O-])=C1O.[Na+] [Sodium ascorbate, sodium ascorbate]
- Stability of reagent (trout fingerlings [1]): lack of stability

SMILES: OCl [sodium hypochlorite]
- Effects observed (trout fingerlings [2]; [Cl2] 0.25 mg/l): No effect.
- Mortality % observed (trout fingerlings [2]; [Cl2] 0.25 mg/l, 12 trout fingerlings): 0%
- Effects observed (trout fingerlings [2]; [Cl2] 0.70 mg/l): Reduction in mobility; also recorded: Accelerated ventilation
- Mortality % observed (trout fingerlings [2]; [Cl2] 0.70 mg/l): 10%
- Effects observed (trout fingerlings [2]; [Cl2] 1.4 mg/l): Highly reduced mobility; also recorded: Loss of appetite; also recorded: Very high ventilation; also recorded: Reduction in the size of the iris
- Mortality % observed (trout fingerlings [2]; [Cl2] 1.4 mg/l): 60%
- Effects observed (trout fingerlings [2]; [Cl2] 2.1 mg/l): Swimming on the side then on the back; also recorded: Death
- Mortality % observed (trout fingerlings [2]; [Cl2] 2.1 mg/l): 100%

SMILES: O=C1O[C@H]([C@@H](O)CO)C(O)=C1O [ascorbic acid, L-ascorbic acid]
- Mortality of biological indicators (Fario trout fingerlings; 8 hours/day for twenty days, real operating conditions): did not generate any mortality
- Elimination of chlorine in installation (Fario trout fingerlings; in-flow 4.5 mg/l Cl2, water 160 l/h, 20% ascorbic acid 0.036 l/h, solution stored 0 to 60 days): complete neutralization
- Residual chlorine concentration after treatment [3]: < 0.1 mg/L
- Reduction in reducing power over time ([4]; 10% ascorbic acid solution, darkness, approx. 20° C., after 35 days): −10%
- Loss of reducing activity ([4]; ascorbic acid after 60 days, FIG. 1): 5%
- Effectiveness of the product (chlorine elimination) after storage ([4]; at least 20% (200 g/l) solution, after 60 days of use): approximately 95%
- Behavior of trout fingerlings (trout fingerlings [5]): did not show any significant change in the behavior
- Physical signs and mobility of trout fingerlings (trout fingerlings [6]): no abnormal physical signs and normal mobility
- Ascorbic acid flow rate for effective dechlorination ([7]; 20% solution stored 60 days away from light at ambient temperature (R=3)): 0.036 L/h
- Ascorbic acid flow rate for effective dechlorination ([7]; 20% solution, t=0, optimal setting (R=2.5)): 0.030 L/h
- Decrease of speed of reaction with chlorine ([7]; ascorbic acid 60 days old): 16%
- Dechlorination yield ([7]; initial chlorine 4.5 mg/l equivalent Cl2, 20% ascorbic acid flow rate 0.030 l/h (R=2.5)): ~100%

SMILES: O=C1O[C@H]([C@@H](O)CO)C(=O)C1=O [dehydroascorbic acid]
- Reducing activity of degradation by-product [4]: equivalent to that of the initial ascorbic acid

- Reducing activity of degradation by-product [4]: lessened reducing activity
SMILES: CCC(=O)C=O [ethylglyoxal]

SMILES: O=S([O-])O.[Na+] [sodium bisulfite, sodium bisulfite (NaHSO3)]
- Outcome for trout fingerlings (trout fingerlings [1]; various implementation conditions): death of the trout fingerlings
